Measured values taken from patent US4387238A, “Epoxysuccinamic acid compounds” (Taisho Pharmaceutical Co., Ltd., priority 1978, dated 1983).
Where two headings read alike, the source gives them in different places.

Experiments:
[1] = test system: adjuvant-induced polyarthritis; experiment: Effect on the development of adjuvant-induced polyarthritis in rat (hind paw volume); assay type: in vivo, Sprague Dawley rat; conditions: 30 mg/kg of body weight, daily oral, 8 rats/group
Method: The compounds of the present invention show excellent anti-inflammatory activity as measured by their ability to inhibit adjuvant induced polyarthritis as compared with the known epoxysuccinates. That is, they show potent and continuous effectiveness on oral administration of smaller components than the known epoxysuccinic acid compounds. Effect of the compounds of the present invention on the development of adjuvant-induced polyarthritis in rat was assayed as follows: Adjuvant arthritis is produced by a single intracutaneous injection of 0.1 ml of the adjuvant mixture containing heat-killed mycobacteria of the human Aoyama B strain suspended in liquid paraffin in 0.6% in the middle part of the distal tail of Sprague Dawley rat (female, 8 weeks old). The compounds suspended in 0.5% carboxymethylcellulose solution protect the animal against the development of lession of adjuvant arthritis in daily oral administration beginning on the day of adjuvant injection and continuing for 24 days thereafter. The activity is measured as the mean inhibition percent for the increase of the hind paw volume of the 8 rats/group on the days 17 and 23 on which the legs become inflamed and reach maximum volumes. The compound Nos. in Table 1 are as defined in Examples as described hereinafter.

papain = target: T1, papain (Carica papaya, UniProt P00784); experiment: Papain inhibitory activity (milk casein proteolysis); assay type: biochemical; parameters: unit not given beside the values; conditions: amount of inhibitor for 50% inhibition; pH 6.8, 40° C., casein substrate
T1 construct: purchased Sigma Chem. Co
T1 sequence (P00784 134-345): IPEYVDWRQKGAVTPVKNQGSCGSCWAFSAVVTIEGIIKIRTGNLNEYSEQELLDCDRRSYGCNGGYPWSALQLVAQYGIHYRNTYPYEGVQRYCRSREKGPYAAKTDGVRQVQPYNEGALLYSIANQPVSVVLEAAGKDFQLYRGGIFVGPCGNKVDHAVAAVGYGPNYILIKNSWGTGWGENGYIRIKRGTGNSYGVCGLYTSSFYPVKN

[2] = 408 h, day 17, mean inhibition for increase of hind paw volume, read-out: Inhibition(%) 17 days
[3] = 552 h, day 23, mean inhibition for increase of hind paw volume, read-out: Inhibition(%) 23 days

## O=C(O)[C@@H]1O[C@H]1C(=O)NCC1CCCCC1 (relative stereo) [Compound No. 98, potassium N-cyclohexanemethyl-2,3-epoxysuccinamate]
[1]; [2]
  inhibition in vivo at 30 mg/kg: 55%
[1]; [3]
  inhibition in vivo at 30 mg/kg: 41%
papain
  ID50: 0.205 γ

## O=C(Nc1ccccc1)[C@H]1O[C@@H]1C(=O)OC1CCCCC1 (relative stereo) [Compound No. 45, Cyclohexyl N-phenyl-2,3-epoxysuccinamate]
[1]; [2]
  inhibition in vivo at 30 mg/kg: 65%
[1]; [3]
  inhibition in vivo at 30 mg/kg: 49%
papain
  ID50: 5.89 γ

## CCOC(=O)[C@@H]1O[C@H]1C(=O)Nc1ccccc1 (relative stereo) [Compound No. 1, ethyl N-phenyl-2,3-epoxysuccinamate]
[1]; [2]
  inhibition in vivo at 30 mg/kg: 70%
[1]; [3]
  inhibition in vivo at 30 mg/kg: 62%
papain
  ID50: 24.04 γ
